Experimental data as given in PubChem BioAssay AID1200 (NMMLSC, 2008).
The source made the active and inactive calls. The rule behind the calls is not given here.

tested on: prostate cells, cell count (flow cytometry events), cytotoxicity; assay: prostate cell loss as cytotoxicity readout, dose response, cytotoxicity control for prostate cell differentiation activator project, flow cytometry event count (AID 1200); settings: not given

| SMILES | EC50 |
| --- | --- |
| CCN1CCN(c2cc(C)c3cc(NC(=O)c4ccc(Br)o4)ccc3n2)CC1 | 3.98 µM |
| Cc1ccccc1-c1nc(CN2CCC(C(=O)NCCCN3CCOCC3)CC2)c(C)o1 | 3.44 µM (inactive) |
| COc1ccccc1N1CCN(c2nc3ccccc3nc2C(C#N)C(=O)OC(C)C)CC1 (centres undefined) | 9.78 µM (inactive) |
| CCOc1ccc(-c2cc(C(=O)NCCCN3CCN(CC)CC3)c3ccccc3n2)cc1 | 11.1 µM (inactive) |
| CCN(CC)CCCNC(=O)c1cc2c(-c3ccc(Cl)cc3)nn(C)c2s1 | 2.64 µM |
| Cn1c(=O)cc(OCC(=O)NCCCN2CCN(c3ccccc3F)CC2)c2ccccc21 | 14 µM (inactive) |
| CCCN(CCC)CCNC(=O)C1CCN(Cc2nc(-c3ccc(Cl)cc3)oc2C)CC1 | 6.46 µM |
| COc1ccc(N2CCN(CCCNC(=O)c3cc4sccc4n3C)CC2)cc1 | 10.1 µM (inactive) |
| CCN1CCCC1CNC(=O)C1CCN(Cc2nc(-c3cccc(Br)c3)oc2C)CC1 (centres undefined) | 1.14 µM |
| CCN1CCN(C(c2cccs2)C(C)NS(=O)(=O)c2ccc(Br)cc2)CC1 (centres undefined) | 10.1 µM (inactive) |
| Cc1ccc(Cl)cc1N1CCN(C(=O)c2cc3c(=O)n(C)c4ccccc4c3n2C)CC1 | 0.155 µM |
| Cc1cccc(-c2nsc(SCC(=O)Nc3nccs3)n2)c1 | 3.45 µM (inactive) |
| Cc1ccccc1-c1nc(CN2CCC(C(=O)NCCCN3CCCC3)CC2)c(C)o1 | 0.358 µM (inactive) |
| COc1ccc(N2CCN(CCCNC(=O)CC3Oc4ccc(C)cc4NC3=O)CC2)cc1 (centres undefined) | 3.54 µM (inactive) |
| CCn1c(=O)cc(SCC(=O)NCCCN2CCN(c3ccccc3F)CC2)c2ccccc21 | 15.6 µM (inactive) |
| COc1ccc(Nc2nc(N)nc(CN3CCC(Cc4ccccc4)CC3)n2)cc1 | 2.46 µM |
| COc1ccc2cc3cc(C(=O)Nc4ccccc4N4CCN(C)CC4)oc3nc2c1 | 2.06 µM |
| O=C(NCCCN1CCN(c2ccc(F)cc2)CC1)c1cccc(N2CCCC2=O)c1 | 0.441 µM (inactive) |
| CCOC(=O)c1c(C)[nH]c(C(=O)COC(=O)C2CC2C)c1C (centres undefined) | 0.441 µM |
| CN(C)CCCN1c2ccccc2CCc2ccc(Cl)cc21 | 5.46 µM |
| Cc1ccc2c(c1)-c1c(cnn1CC(=O)Nc1ccccc1N1CCN(C)CC1)CO2 | 9.77 µM |
| CCCc1cc(-c2n[nH]c(C)c2-c2ccc(C(=O)OCC)o2)c(O)cc1O | 3.64 µM (inactive) |
| Cc1ccccc1-c1nc(CN2CCCC(C(=O)NCCCN3CCOCC3)C2)c(C)o1 (centres undefined) | 13.9 µM (inactive) |
| COC(=O)c1cc(-c2ccccc2)sc1NC(=O)c1cc(C)on1 | 0.326 µM (inactive) |
| CCCS(=O)(=O)N1CCCC(C(=O)NCCCN2CCN(c3ccc(F)cc3)CC2)C1 (centres undefined) | 0.328 µM (inactive) |

| SMILES | EC50 |
| --- | --- |
| CC(C)(C)c1ccc(C(O)CCCN2CCC(C(O)(c3ccccc3)c3ccccc3)CC2)cc1 (centres undefined) | 0.00318 µM (inactive) |
| COc1ccc(CCn2c(=N)c(C(=O)NCc3ccco3)cc3c(=O)n4ccccc4nc32)cc1 | 10.2 µM (inactive) |
| Cn1c(=O)cc(SCC(=O)NCCCN2CCN(c3ccccc3F)CC2)c2ccccc21 | 1.17 µM |
| CN(C)c1ccc(CNC2CC(C)(C)NC(C)(C)C2)cc1 | > 30 µM (inactive) |
| Cn1nc(-c2ccc(Cl)cc2)c2cc(C(=O)NCCCN3CCCC3)sc21 | 4.21 µM |
| CN(CC(O)COc1ccc(OCC(O)CN(C)C2CCCCC2)cc1)C1CCCCC1 (centres undefined) | 0.424 µM |
| CN1CCN(CCCNC(=O)c2cc3c(-c4ccc(Cl)cc4)nn(C)c3s2)CC1 | 4.25 µM |
| CCn1c(=O)cc(SCC(=O)NCCN2CCN(Cc3ccccc3)CC2)c2ccccc21 | 14.5 µM (inactive) |
| Cc1ccc(C)c(N2CCN(CCCNC(=O)Cn3cc4c(n3)CCCCC4)CC2)c1 | 11.1 µM |
| COc1ccc(-c2oc3ncn(CCN4CCOCC4)c(=N)c3c2-c2ccc(OC)cc2)cc1 | 3.2 µM |
| Cc1oc(-c2ccc(Cl)cc2)nc1CN1CCC(C(=O)NCCCN2CCOCC2)CC1 | 17.8 µM (inactive) |
| CCN(CC)CC(=O)Nc1ccc(-c2nc3cc(NC(=O)CN(CC)CC)ccc3o2)cc1 | 8.06 µM |
| CCN(CC)CCNC(=O)c1ccc(N2CCCCC2)c(NS(=O)(=O)c2ccc(C)cc2)c1 | 0.145 µM |
| Cc1ccccc1-c1nc(CN2CCC(C(=O)NCCCN3CC(C)CC(C)C3)CC2)c(C)o1 (centres undefined) | 2.11 µM |
| Nc1ccc(-n2ccnc2)cc1 | 1.04 µM (inactive) |
| O=C(NCCCN1CCN(c2cccc(Cl)c2)CC1)c1cccc(N2CCCC2=O)c1 | 11.2 µM |
| Cc1ccc(OCC(O)Cn2c(=N)n(CCN3CCCCC3)c3ccccc32)cc1 (centres undefined) | 3.48 µM |
| CCN(CC)CCNC(=O)c1cc2c(-c3ccc(Cl)cc3)nn(C)c2s1 | 3.88 µM |
| Cc1ccccc1-c1nc(CN2CCC(C(=O)NCc3cccnc3)CC2)c(C)o1 | 1.99 µM |
| CN1CCN(c2cc3c(c4c2[nH]c2ccccc24)C(=O)CC(C)(C)C3)CC1 | 4.6 µM |
| CCOC(=O)c1c(C)n(C)c2ccc(OCC(O)CNC(CC)CO)cc12 (centres undefined) | 10.9 µM (inactive) |
| CCOC(=O)c1ccccc1NC(=O)Cn1c(-c2nonc2N)nc2ccccc21 | 0.137 µM |
| CCc1ccc(-c2nc(CN3CCC(C(=O)NCc4ccc(F)cc4)CC3)c(C)o2)cc1 | 1.8 µM |
| CCN1CCN(c2ncc(C(=O)Nc3cc(Cl)c(OC)cc3OC)c3ccccc23)CC1 | 2.94 µM |
| O=S1(=O)C=C(Sc2nc3ccccc3s2)c2ccccc21 | 0.959 µM |

| SMILES | EC50 |
| --- | --- |
| CCOC(=O)c1[nH]c(C)c(C(=O)N2CCc3ccccc32)c1C | 0.139 µM |
| O=C(CCN1C(=O)COc2ccccc21)NCCCN1CCN(c2ccc(F)cc2)CC1 | > 30 µM (inactive) |
| CN(CCNC(=O)C1CC(=O)N(c2ccc(F)c(Cl)c2)C1)Cc1ccccc1 (centres undefined) | 27.5 µM (inactive) |
| CC1CCCCN1CCNC(=O)c1cc2c(-c3ccccc3F)nn(C)c2s1 (centres undefined) | 8.61 µM |
| COc1ccc(CCN2CCC(Nc3nc4ccccc4n3Cc3ccc(F)cc3)CC2)cc1 | 7.83 µM (inactive) |
| CC(C)N1CCC2(CC1)N=C(c1ccc3c(c1)OCO3)CC(c1cc(Cl)ccc1O)N2 (centres undefined) | 1.86 µM |
| COc1ccc(-c2cc(C(F)(F)F)nc(N3CCN(Cc4ccccc4)CC3)n2)cc1OC | 9.88 µM (inactive) |
| Cc1oc(-c2ccc(Cl)cc2)nc1CN1CCC(C(=O)N2CCN(Cc3ccccc3)CC2)CC1 | 3.29 µM |
| CCN1CCCC1CNC(=O)c1cc2c(-c3ccc(Cl)cc3)nn(C)c2s1 (centres undefined) | 4.83 µM |
| COc1ccccc1N1CCN(Cc2cc(Br)c(O)c3ncccc23)CC1 | 1.09 µM |
| O=C(c1ccccc1)c1ccc(N2CCNCC2)cc1 | > 30 µM (inactive) |
| COc1cc2nc(N3CCN(C(=O)C4COc5ccccc5O4)CC3)nc(N)c2cc1OC (centres undefined) | 9.6 µM (inactive) |
| CCCOc1ccccc1C1CC(=O)Nc2cc3c(cc21)OCO3 (centres undefined) | 0.373 µM (inactive) |
| Cc1cc2c(=O)n(CC(=O)N3CCN(c4ccccc4)CC3)cnc2s1 | 0.0344 µM (inactive) |
| Cn1c(C(=O)NCCCN2CCN(c3cccc(Cl)c3)CC2)cc2c(=O)n(C)c3ccccc3c21 | 5.27 µM |
| COc1ccc(-c2ccc(-c3noc(-c4ccccc4)n3)c(OC)n2)cc1 | 3.16 µM (inactive) |
| Oc1c(CN2CCCCC2)cc(COCc2ccccc2)c2cccnc12 | 2.96 µM |
| CCN1CCN(CCNC(=O)C2CCN(Cc3nc(-c4ccc(Cl)cc4)oc3C)CC2)CC1 | 8.88 µM (inactive) |
| Cn1nc(-c2ccc(Cl)cc2)c2cc(C(=O)NCCCN3CCOCC3)sc21 | 10.1 µM (inactive) |
| CCOc1ccccc1NC(=O)c1nc[nH]c1C(=O)Nc1ccccc1OCC | 3.26 µM (inactive) |
| Cc1cc(N2CCN(C)CC2)nc2ccc(NC(=O)c3ccc(Br)o3)cc12 | 8.72 µM |
| COc1ccc(Cc2nc(-c3ccc(-n4cccc4)cc3)no2)cc1OC | 3.01 µM (inactive) |
| CC1CCCCN1CCNC(=O)c1ccc2c(=O)n(CCc3ccccc3)c(=O)[nH]c2c1 (centres undefined) | 10.5 µM (inactive) |

tested on: not listed separately; assay: as above; settings: prostate cells, cell count (flow cytometry events), cytotoxicity; at 30 µM (top of the series)

| SMILES | cell count (% of control) |
| --- | --- |
| COc1ccc(N2CCN(CCCNC(=O)CCCn3c(=O)[nH]c4ccsc4c3=O)CC2)cc1 | 330% (inactive) |
| O=C(Cn1cc2c(n1)CCCC2)NCCCN1CCN(c2ccccc2F)CC1 | 382% (inactive) |
| COc1ccc(-c2noc(-c3cc(Cl)ccc3Cl)n2)cc1OC | 347% (inactive) |
| CCOc1cccc2cc(-c3cn4cc(C)ccc4n3)c(=O)oc12 | 44.8% (inactive) |
| C[C@H]1CCC/C=C/C2C[C@H](O)CC2[C@H](O)/C=C/C(=O)O1 (some centres undefined) | 129% (inactive) |
| CCn1c(=N)n(CC(O)COc2cccc(C)c2)c2ccccc21 (centres undefined) | 266% (inactive) |
| Cc1ccc(CNc2nc3ccccc3n3nnnc23)cc1 | 348% (inactive) |
| Cc1ccccc1CS(=O)(=O)CCC(=O)NCCCN1CCN(c2ccccc2F)CC1 | 854% (inactive) |
| COc1ccccc1NC(=O)c1nc[nH]c1C(=O)Nc1ccccc1OC | 546% (inactive) |
| COc1ccc(-c2noc(CCC(=O)NCCCN3CCC(Cc4ccccc4)CC3)n2)cc1 | 276% (inactive) |
| CCN(CCNC(=O)C1CCN(Cc2nc(-c3ccc(Cl)cc3)oc2C)CC1)c1ccccc1 | 22% (inactive) |
| N=c1n(CCN2CCCCC2)c2ccccc2n1CC(O)COc1ccccc1 (centres undefined) | 311% (inactive) |
| CCN(CCNC(=O)C1CCN(Cc2nc(-c3cccc(Cl)c3)oc2C)CC1)c1ccccc1 | 141% (inactive) |
| Clc1ccc(COC(Cn2ccnc2)c2ccc(Cl)cc2Cl)cc1 (centres undefined) | 350% (inactive) |
| Cc1cc(C)nc(N2CCC(C(=O)Nc3ccc(Oc4ccccc4)cc3)CC2)n1 | 264% (inactive) |
| Cn1c(=O)[nH]c(=O)c2c1nc(Br)n2CCCSc1nc2ccccc2o1 | 227% (inactive) |
| O=c1cc(-c2ccccc2)[nH]c2ccccc12 | 105% (inactive) |
| Cc1nc2ncnn2c(C)c1CCC(=O)NCCCN1CCN(c2cccc(Cl)c2)CC1 | 1150% (inactive) |
| CCOc1ccc(NC(=O)COc2nsnc2N2CCCCC2)cc1 | 226% (inactive) |
| Cc1cc(N2CCN(C)CC2)nc2ccc(NC(=O)c3ccc4c(c3)OCO4)cc12 | 102% (inactive) |
| Cc1ccc(Nc2cc(=O)n(C3CCCCC3)c(=O)[nH]2)cc1C | 196% (inactive) |
